Test results published in PubChem BioAssay (NCI).
Where “and” joins values, the source holds several entries; their conditions need not be identical. Equal entries are not always repeated.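 Assay format: 96-well plates, 48-hour exposure. GI50 is the concentration that inhibits growth by half. At the TGI there is no net growth.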

system: MDA-MB-468 breast; test: DTP human tumour cell line panel, 48 h

Row | Structure (SMILES) | GI50 | TGI
1 | Fc1cccc(Cl)c1/C=N/Nc1nc(N/N=C/c2c(F)cccc2Cl)nc(N2CCCCC2)n1 | 1.86 µM | 6.89 µM
2 | COc1ccc2c(c1)c(-c1nc(-c3c[nH]c4ncccc34)cs1)cn2CCCN1CCOCC1 | 2.52 µM | 5.25 µM
3 | CCN(CC)CCCNc1ccc(C)c2sc3ccccc3c(=O)c12 | 0.365 µM | 1.27 µM
4 | OC1(c2ccc(Cl)c(C(F)(F)F)c2)CCN(CCCC(c2ccc(F)cc2)c2ccc(F)cc2)CC1 | 0.707 µM | 1.37 µM
5 | CCN1C(=O)N(CC)C2SC(N/N=C/c3ccc(OC)cc3)=NC21 (stereo unspecified) | 0.314 µM | –
6 | COc1cc2c(N3CCN(C(=O)Nc4ccc(OC(C)C)cc4)CC3)ncnc2cc1OCCCN1CCCCC1 | 14.1 µM | 42.9 µM
7 | c1ccc(-c2[nH]ncc2-c2ccnc(-c3ccc(OCCn4ccnc4)cc3)c2)nc1 | 12.2 µM | > 25 µM
8 | CCN(CC)Cc1cc(Nc2nc(NC3CCC(N(C)C)CC3)c3ccccc3n2)ccc1OC (stereo unspecified) | 1.64 µM | 3.16 µM
9 | O=C1c2cccc(Oc3ccccc3)c2C(=O)c2cccc(Oc3ccccc3)c21 | > 100 µM | > 100 µM
10 | N#CC1(c2ccc(NC(=O)c3cccnc3NCc3ccncc3)cc2)CCCC1 | 7.04 µM | 51.8 µM
11 | C[C@]12CC[C@H]3[C@@H](CCC4=CC(=O)CC[C@@]43C)[C@@H]1CC[C@@H]2c1csc(N)n1 | 1.17 µM | 18.5 µM
12 | CCCCCOc1ccc(/C=N/Nc2cc(C)nc3ccc(Cl)cc23)cc1 | 1.7 µM | 3.37 µM
13 | Cn1nccc1Nc1nccc(-c2ccn([C@H](CO)c3ccc(Cl)c(F)c3)c(=O)c2)n1 | 18.8 µM | 57.9 µM
14 | CN(C)CCCC1(c2ccc(F)cc2)OCc2cc(-c3cccc4[nH]ccc34)ccc21 (stereo unspecified) | 1.79 µM | 3.43 µM
15 | CNC(=O)c1ncccc1Nc1nc(Nc2cc3c(cc2OC)CCCN3C(=O)CN(C)C)nc2[nH]ccc12 | 0.435 µM | 2.47 µM
16 | COc1ccc2c(N)ncc(C#Cc3cc(C(=O)Nc4ccc(CN5CCN(C)CC5)c(C(F)(F)F)c4)cnc3C)c2c1 | 2.46 µM | 8.94 µM
17 | O=C(OCc1ccc2c(Br)cc(Br)c(O)c2n1)c1cc2ccccc2[nH]1 | 0.419 µM | 1.54 µM
18 | O=C1/C(=C/c2ccc(Cl)c(Cl)c2)CN(C(=O)CCN2CCC(=NO)CC2)C/C1=C\c1ccc(Cl)c(Cl)c1 | 0.898 µM | 2.4 µM
19 | COc1ccc(OC)c(NCC(=O)n2nc(/C=C\c3ccc(O)c(OC)c3)cc2/C=C\c2ccc(O)c(OC)c2)c1 | 2.85 µM | 23.3 µM
20 | Nc1ncnc2c1N=C(c1ccc3c(c1)OCO3)CC(c1ccc(Cl)cc1)N2 (stereo unspecified) | 10.1 µM | 54.9 µM
21 | CC1(C)N=C(N)N=C(N)N1c1ccc(CCC(=O)Nc2ccc(S(=O)(=O)F)cc2)cc1 | 1.01 µM | > 100 µM
22 | CNCc1cccc2c1OCCOCCOCCN(C)S(=O)(=O)c1ccc(cc1)-c1cnc(N)c(n1)C(=O)N2 | 2.62 µM | 14.6 µM
23 | Cn1c([N+](=O)[O-])cnc1C=C1C(=O)c2ccccc2C1=O | 7.35 µM | 33.1 µM
24 | CC1=C(C(=O)Nc2ccccc2)C(c2ccc(N(C)C)cc2)C(C(=O)Nc2ccccc2)=C(C)N1 | 43.9 µM | > 100 µM
25 | Cc1cccc(NC(=O)c2sc3nc4c(cc3c2N)C(=O)CCC4)c1 | 0.0807 µM | 2.66 µM
26 | COC(=O)OC1C(O[C@H]2C[C@H]3[C@@H]4CC=C5C[C@@H](O)CC[C@]5(C)[C@H]4CC[C@]3(C)[C@H]2[C@H](C)C(=O)CCC(C)C)OCC(O)C1OC1OCC(O)C(O)C1OC(=O)c1ccc(OC)cc1 (stereo partly specified) | 0.111 µM | 1.7 µM

Row | Structure (SMILES) | GI50 | TGI
27 | Cc1c(C(=N)C(C#N)C#N)c(=N)oc2c1ccc1ccccc12 | 13.5 µM | 46 µM
28 | Cc1ccc2c(-c3ccnc(Nc4ccc5c(c4)OCCO5)n3)c(-c3ccc(C(F)(F)F)cc3)nn2n1 | 5.19 µM | > 25 µM
29 | CN[C@@H](C)C(=O)N[C@H]1CN(S(=O)(=O)c2cccc(S(=O)(=O)N3CC[C@H]4CC[C@@H](C(=O)NC(c5ccccc5)c5ccccc5)N4C(=O)[C@@H](NC(=O)[C@H](C)NC)C3)c2)CC[C@H]2CC[C@@H](C(=O)NC(c3ccccc3)c3ccccc3)N2C1=O | < 0.01 µM | 0.0819 µM
30 | CC(C)(CO)CNC(=O)c1ccc2[nH]c(O)c(N=Nc3ccc(S(N)(=O)=O)cc3)c2c1 | > 17.9 µM | > 25 µM
31 | FC(F)(F)Oc1cccc(-c2cc(NCCCCCCNc3cc(-c4cccc(OC(F)(F)F)c4)nc4ccc(N5CCCC5)cc34)c3cc(N4CCCC4)ccc3n2)c1 | 1.59 µM | 3.21 µM
32 | O=C1NC(=N[C@@H](CO)c2ccccc2)S/C1=C\c1ccc2ncccc2c1 | 5.78 µM | > 25 µM
33 | COc1ccc(OC)c(/C=C/c2nc(=S)n(-c3ccc(Cl)cc3)[nH]2)c1 | 3.51 µM | 55.4 µM
34 | CC(=O)O[C@H]1C(=O)[C@@]2(C)C([C@H](OC(=O)c3ccccc3)[C@]3(O)C[C@H](OC(=O)[C@H](O)[C@@H](NC(=O)c4ccccc4)c4ccccc4)C(C)=C1C3(C)C)[C@]1(OC(C)=O)CO[C@@H]1C[C@@H]2O (stereo partly specified) | < 0.005 µM | 0.0545 µM
35 | CCn1cc(C(=O)O)c(=O)c2cc(F)c(N3CCN(S(=O)(=O)c4cccc5ccccc45)CC3)cc21 | 2.52 µM | 7.32 µM
36 | CCCCCCCCCCCC[N+]1(CCCCCCCCCCCC)CCCC(C)C1 (stereo unspecified) | 0.0689 µM | 0.388 µM
37 | O=C1C=C[C@H](O)[C@@]2(CO)O[C@@H]12 | 4.61 µM | 20 µM
38 | Cc1nn(-c2ccc(Cl)cc2)c2ncnc(N/N=C/c3ccccc3O)c12 | 1.71 µM and 1.03 µM | 6.46 µM and 7.68 µM
39 | Nc1nc2c(c3cnccc13)C(c1ccc(Cl)c(Cl)c1)Cc1cnccc1-2 (stereo unspecified) | 0.27 µM | 0.807 µM
40 | O=C(Nc1cccc(-n2cc(-c3ccncc3)c(-c3cc(O)cc(Cl)c3)n2)c1)c1ccc(N2CCOCC2)c(C(F)(F)F)c1 | 3.42 µM | 43.3 µM
41 | N#CC1c2ccccc2C=CN1C(=O)CCCl (stereo unspecified) | 2.1 µM | 5.74 µM
42 | N#Cc1nc2c(S(=O)(=O)c3ccc(Cl)cc3)c(N)n(Nc3cccc(Cl)c3)c2nc1C#N | 0.00706 µM | 0.195 µM
43 | COc1ccc2sc3c(NCCCN)nc4ccccc4c3c(=O)c2c1 | 1.56 µM | 3.19 µM
44 | CCN1C(=S)N(CC)C2C1NC(=S)N2/N=C/C=C/c1ccccc1OC (stereo unspecified) | 0.347 µM | 31.4 µM
45 | Cc1ccc(O)cc1Nc1ccnc2ccc(S(C)(=O)=O)cc12 | 2.04 µM | 9.37 µM
46 | CCNc1nc(O)c(/C=C2\C=Nc3ncccc32)s1 | 1.99 µM | 4.27 µM
47 | O=C(/C=C/C12c3ccccc3C(c3ccccc31)C1C(=O)NC(=O)C12)c1ccccn1 (stereo unspecified) | 1.71 µM | 4.03 µM
48 | CCN=c1sc2c(n1NC(=O)c1cc3ccc1CCc1ccc(cc1)CC3)C(=O)c1ccccc1C2=O | 0.719 µM | 1.83 µM
49 | COc1cc2c(cc1Nc1nc(N3CCc4ccccc43)c3cc[nH]c3n1)N(C(=O)CN(C)C)CC2 | 1.3 µM | 2.83 µM
50 | CC(=O)ON1CCCC(P(=O)(OCOC(=O)C(C)(C)C)OCOC(=O)C(C)(C)C)C1=O (stereo unspecified) | 1.01 µM | 5.92 µM
51 | CCN(CC)CCCC(C)NCC(=O)NC(c1ccc2c(c1)OCO2)c1cc(Cl)c2cccnc2c1O (stereo unspecified) | 1.87 µM | 4.5 µM
